PubChem BioAssay AID1996
In brackets after ≈: the same amount, converted by molar mass.

Details: buffer; pH 7.4; 200.0 µM

Compound	solubility kinetic [µg/mL]
Cc1ccc(S(=O)(=O)NCC(=O)OCC(=O)N(CCC#N)c2ccccc2)cc1	> 62.3
Nc1nc2ccccc2[nH]1	> 20
CC(C)c1ccccc1NC(=S)NCCCn1ccnc1	> 45.4
CC1CCCCC1NC(=O)Cn1c(=O)cnc2ccccc21 (stereo not given)	5 (≈ 16.7 µM)
Clc1cc(Cl)cc(CN2CCSCC2)c1	4.5 (≈ 17.2 µM)
CCCCOc1ccc(CC(=O)NO)cc1	> 33.5
CC(C)COc1ccc(C(=S)N2CCCC2)cc1	21.2 (≈ 80.5 µM)
CCNc1nc(SCC(=O)OC)nc(N(C)C)n1	> 40.7
CC(C)(C)c1ccc(OCC(=O)Nc2ccncc2)cc1	3.7 (≈ 13 µM)
Cc1cccc(C)c1OCCN1CCOCC1.O=C(O)C(=O)O	42.1
O=C(NC(=S)NC1CCC(O)CC1)c1ccco1 (stereo not given)	> 40.2
O=C(CCc1ccccc1)Nc1sc2c(c1C(=O)O)CCCC2	> 49.4
OC(CC#CCN1CCCC1)(c1ccccc1)c1ccccc1	36.7 (≈ 120 µM)
O=C(NCC(=O)N1CCN(c2ccccc2O)CC1)c1ccccc1	49.4 (≈ 146 µM)
Oc1ccc(-c2csc(Nc3ccccn3)n2)cc1	5.3 (≈ 19.7 µM)
CCOc1ccc(NC(=O)Nc2ccccc2SC)cc1	1.4 (≈ 4.63 µM)
Cc1ccc(S(=O)(=O)N2CCN(C(=O)COC(=O)c3cncc(Br)c3)CC2)c(C)c1	5.3 (≈ 10.7 µM)
COc1cccc(C2Nc3ccccc3NC3=C2C(=O)CC(C)(C)C3)c1 (stereo not given)	40.2 (≈ 115 µM)
CCOc1ccc(N2CC(C(=O)NC3=NCCS3)CC2=O)cc1 (stereo not given)	> 50
Cc1cc(SCC(=O)[O-])nc2ccccc12	31
Cc1occc1-c1nnc(SCC(=O)NC2CC2)n1C	> 43.9
COc1ccccc1OCCCN1C(=O)C(=O)c2cccc(C)c21	40.1 (≈ 123 µM)
Cc1cccc2c(CCN)c[nH]c12.Cl	> 31.6
Cc1ccc(N=C2NC(=O)/C(=C/c3cccn3C)S2)cc1C	0.9 (≈ 2.89 µM)

Compound	solubility kinetic [µg/mL]
COC(=O)c1scc(C)c1NC(=O)/C=C/C(=O)O	38.8 (≈ 144 µM)
COc1ccc(CCNC(=O)COC(=O)c2cc(=O)[nH]c3ccccc23)cc1	8.9 (≈ 23.4 µM)
CNC(=S)Nc1cccc(S(=O)(=O)NC2=NCCC2)c1	45.7 (≈ 146 µM)
COc1ccc(CN(C#N)c2nc(C)cc(C)n2)cc1	38.5 (≈ 143 µM)
Cc1cnc(NC(=O)CCc2ccccc2)s1	8.7 (≈ 35.3 µM)
Nc1cccc(NC(=O)CN2CCOCC2)c1	> 35.3
CCC(C)[C@H](NC(=O)N1CCCCCC1)C(=O)OC (stereo not given in full)	1.2 (≈ 4.44 µM)
CC(C)c1ccc(NC(=O)CN2C(=O)NC3(CCCCCCC3)C2=O)cc1	16.4 (≈ 44.1 µM)
COc1nc(C)nc(NC(=O)NS(=O)(=O)c2ccccc2Cl)n1	> 53.7
Cn1cc(S(=O)(=O)N2CCNCC2)cc1C(N)=O	> 40.8
OCc1nc2ccccc2n1Cc1c(F)cccc1Cl	14.4 (≈ 49.5 µM)
Cc1cccc(NC(=O)c2cnccn2)c1	22.1 (≈ 104 µM)
Nc1cc(=O)[nH]c(SCCSc2ccccc2)n1	9.6 (≈ 34.4 µM)
Cc1cc(=O)oc2c(C(=O)c3ccccc3)c(OCC(N)=O)ccc12	5.6 (≈ 16.6 µM)
O=C(O)CN1C(=O)C(=O)N(Cc2c(F)cccc2Cl)C1=O	45.5 (≈ 145 µM)
C[C@@H]1C2CC(C/C2=N\NC(=O)c2ccncc2)C1(C)C (stereo not given in full)	> 40.7
Cc1ccc(C(=O)N2CC=C(c3ccccc3)CC2)s1	3.1 (≈ 10.9 µM)
O=C(CN1CCOCC1)Nc1ccc(Br)cc1	> 44.9
CC(=O)c1ccc(NC(=O)COC(=O)Cn2cnc3ccccc32)cc1	> 52.7
O=S(=O)(Nc1cccc(S(=O)(=O)N2CCCC2)c1)c1cccs1	51.9 (≈ 139 µM)
COc1ccc(S(=O)(=O)n2cccc2)c(OC)c1	3.9 (≈ 14.6 µM)
COc1cccc(C=NCCCN=Cc2cccc(OC)c2O)c1O	> 51.4
Cc1ccc2c(c1)CCCN2C(=O)c1cc(C)c(C)s1	3.9 (≈ 13.7 µM)
Cc1ccc(C(=O)NC2CCCCNC2=O)cc1 (stereo not given)	33.3 (≈ 135 µM)

Compound	solubility kinetic [µg/mL]
Cc1nc2nc(N)nc(OCc3ccccc3)c2nc1C	41.6 (≈ 148 µM)
CC(=O)NC1=NN(C(C)=O)C(c2ccco2)S1 (stereo not given)	> 38
CC(C(=O)Nc1ccc(S(=O)(=O)N2CCCC2)cc1)N(C)CC(=O)Nc1cccc(F)c1 (stereo not given)	28.7 (≈ 62 µM)
CC(=O)c1c(C)[nH]c(C(=O)Nc2ccc(C)cc2Br)c1C	0.8 (≈ 2.29 µM)
CC1(C)CC(=O)C=C(Nc2cccc(Cl)c2Cl)C1	37.3 (≈ 131 µM)
Cn1c(=O)n(C)c2cc3[nH]cnc3cc21	> 30.3
Cc1cc(N2CCC(C)CC2)nc(-c2ccccc2O)n1	< 0.2
Cc1c(-n2cccc2C=O)cccc1[N+](=O)[O-]	> 34.5
CCN(CC)CCNC(=O)c1ccc(NC(=O)Cc2ccsc2)cc1	49.4 (≈ 137 µM)
O=C(COC(=O)COc1ccccc1F)Nc1ccc2c(c1)OCO2	> 52.1
O=C(COC(=O)c1ccc(F)cc1)NC1CC1	> 35.6
O=C(NCCCn1ccnc1)c1ccc(-c2cccc(C(F)(F)F)c2)o1	> 54.5
O=C(c1ccccc1)N1CCN(S(=O)(=O)c2cccs2)CC1	> 50.5
O=C(CC1OCC2CCCN2C1=O)Nc1ccc([N+](=O)[O-])cc1 (stereo not given)	45.5 (≈ 142 µM)
O=C(Nc1ccccc1)NC1CCN(Cc2c(F)cccc2Cl)CC1	6.8 (≈ 18.8 µM)
O=C(c1ccccc1Br)N1CCn2c1nc1ccccc12	26.7 (≈ 78 µM)
COc1ccc(CN(CCC(c2ccco2)C(C)C)C(C)=O)cc1OC (stereo not given)	49.2 (≈ 137 µM)
C[C@H](NC(=O)Cc1cccc2ccccc12)C(=O)N1CCOCC1	> 49
Nc1ccc(-c2ccc(N)c([N+](=O)[O-])c2)cc1[N+](=O)[O-]	0.2 (≈ 0.729 µM)
CSc1ccc(S(=O)(=O)N2CCC(C(=O)NC3CC3)CC2)cc1	36 (≈ 102 µM)
NC(=O)c1ccsc1NC(=O)CN1C(=O)NC2(CCCC2)C1=O	> 50.5
CC1(C2CC2)NC(=O)N(CC(=O)Nc2ccc(SC(F)F)cc2)C1=O (stereo not given)	> 55.4
Cc1nc([N+](=O)[O-])cn1CC(=O)Nc1ccc([N+](=O)[O-])cc1	1.3 (≈ 4.26 µM)
O=C(Cc1ccc([N+](=O)[O-])cc1)Nc1ccc(Br)cn1	2.4 (≈ 7.14 µM)

Compound	solubility kinetic [µg/mL]
Cc1ccc2c(c1)C(c1ccccc1)N(C(=O)CC(C)C)CC(=O)N2 (stereo not given)	> 50.5
COc1ccccc1C(=O)CN1C(=O)NC2(CCCc3ccccc32)C1=O (stereo not given)	8.4 (≈ 23.1 µM)
CN(C)C(=O)Oc1ccnc2cc(Cl)ccc12	> 37.6
Cn1c(-c2cccc([N+](=O)[O-])c2)[n+](C)c2ccccc21.[Cl-]	> 45.6
O=C(CNC(=O)c1ccc(Cl)cc1Cl)OCCOc1ccccc1F	51.2 (≈ 133 µM)
CC(C)(C)C1CCC(N2CCN(c3ccccc3)CC2)CC1 (stereo not given)	0.5 (≈ 1.66 µM)
C=CCNC(=O)c1ccccc1NC(=O)C1CC(=O)N(C(C)C)C1 (stereo not given)	> 49.4
CC(C)(C)P(=O)(N1CCOCC1)N1CCOCC1	> 41.4
Cc1cccc(NC(=O)c2cccc(N3C(=O)CCC3=O)c2)c1	> 46.3
Fc1ccc(N=c2ssnc2Cl)c(F)c1	7.5 (≈ 28.3 µM)
COc1ccccc1OCC(O)CN1CCN(C(=O)c2ccccc2)CC1.Cl (stereo not given)	> 61
COc1cc(NC(=O)COC(=O)c2[nH]c(C)c(C(C)=O)c2C)cc(OC)c1	4 (≈ 10.7 µM)
COc1c(O)cccc1/C=N/NC(=O)Cn1ccnc1C	> 43.2
CCOC(=O)Nc1ccc(N2CCOCC2)c(S(=O)(=O)Nc2ccc(Cl)cc2)c1	7.8 (≈ 17.7 µM)
Cc1nnc(SCC(=O)NC2CCCCCC2)n1C(C)C	> 46.6
CCOc1ccc(NS(=O)(=O)c2csc(C(N)=O)c2)cc1	46 (≈ 141 µM)
CC(=O)N1CCC(C(=O)Nc2ccc3c(c2)CCC3)CC1	> 43
COc1cc(OC)cc(C(=O)NCCCCNC(=O)c2cc(OC)cc(OC)c2)c1	1.1 (≈ 2.64 µM)
CN(C(=S)NCCN1CCOCC1)C(c1ccccc1)c1ccccc1	42.7 (≈ 116 µM)
Cc1cc(OCC(O)CN2CCCC2)ccc1C(C)C.Cl (stereo not given)	39.1
Cc1ccc(C(=O)Nc2ccc3c(c2)OCO3)cc1Cl	< 0.6
NC(=O)Nc1ccc(Cl)cc1	> 25.6
Cc1cccc(N2CCN(C(=O)/C=C/c3cccs3)CC2C)c1 (stereo not given)	22.8 (≈ 69.8 µM)
CCc1ccccc1NC(=O)Nc1ccsc1C(=O)OC	16.2 (≈ 53.2 µM)

Compound	solubility kinetic [µg/mL]
CN(C)C(CNC(=O)c1cc(S(=O)(=O)N2CCOCC2)ccc1F)c1cccs1 (stereo not given)	> 66.2
CN(CCc1ccccn1)Cc1ccc(Cl)c(Cl)c1	29.2 (≈ 98.9 µM)
COCCCNC1CS(=O)(=O)CC1O.Cl (stereo not given)	> 39
CCOC(=O)C1CCN(C(=O)CC2(CC(=O)O)CCCC2)CC1	45.5 (≈ 140 µM)
COc1cccc(/C=C/C(=O)OCC(=O)NC2CCCCCCC2)c1	6.7 (≈ 19.4 µM)
O=C(N/C(=C/c1cccc([N+](=O)[O-])c1)C(=O)N1CCCC1)c1ccccc1	51.9 (≈ 142 µM)
CC(=O)Nc1ccc(OCC(=O)NCCc2ccccc2)cc1	> 46.9
O=C(CCc1c[nH]c2ccccc12)N1CCCC1	> 36.3
O=c1cc(CO)[nH]cc1OCc1ccccc1	34.4 (≈ 149 µM)
COc1cccc(CN2C(=O)C(C)Oc3ccccc32)c1 (stereo not given)	26.5 (≈ 93.5 µM)
Cc1occc1C(=O)Nc1cccc([N+](=O)[O-])c1C	36 (≈ 138 µM)
CC(=O)NC(C)CCc1ccccc1 (stereo not given)	> 28.7
Cc1ccc(-c2cc(C(=O)O)c3ccccc3n2)s1	> 40.4
CN(C)/C=C(\C=O)c1onc(-c2ccccc2Cl)c1C#N	44.8 (≈ 148 µM)
Cc1cccc(N2CC(C)Cn3c2nc2c3c(=O)[nH]c(=O)n2C)c1 (stereo not given)	27 (≈ 83 µM)
Cc1nc(NC(=O)C2CC2)sc1C(=O)Nc1cccc(Cl)c1	0.8 (≈ 2.38 µM)
CC(NC(=O)CN1CCOCC1)c1ccc(F)cc1 (stereo not given)	> 39.9
COc1cccc(NC(=O)c2ccccc2NC(=O)c2ccncc2)c1	29.1 (≈ 83.8 µM)
CCOC(=O)N1CCN(C(=S)NC(=O)/C=C/c2ccc(C)cc2)CC1	18.1 (≈ 50.1 µM)
COc1ccc2nc(NC(=O)Nc3ccccc3)sc2c1	< 0.2
COc1ccccc1NC(=O)c1cc(OC)c(OC)cc1[N+](=O)[O-]	> 49.8
CCC(=NCCc1ccc(OC)c(OC)c1)c1ccccc1O	> 47
CC(=O)C1=NOC2C(=O)N(c3ccc(Cl)cc3)C(=O)C12 (stereo not given)	> 43.9
C[C@@H](C(=O)Nc1ccc(SC(F)F)cc1)N1C(=O)C2CCCCC2C1=O (stereo not given in full)	52.5 (≈ 137 µM)
